Measurements published in patent US11851710B2, “Methods and materials for identifying metastatic malignant skin lesions and treating skin cancer” (Mayo Foundation for Medical Education and Research, priority 2014, dated 2023).
“And” between values parts separate entries of the source, which are not always exact repeats. Identical values can stand only once. Like-named read-outs stand apart in the source and are kept apart here.

What was measured:
ERK = ERK activity (phospho-ERK) by Western blotting after overnight drug incubation; format: cell-based; conditions: WM858 melanoma cells, 5 μM
Experimental: FIGS. 13A-13P illustrate B-raf^V600E inhibits FAK to promote integrin surface expression. FIG. 13A: shRNAs 841, 102 and NC were induced in WM858 cells by IPTG for 5 days (n=4) followed by RNA quantitation. Genes regulated at 0 vs. 0.05 mM IPTG in 841 and 102 but not NC cells are shown. These were: ITGB3 (orange), FAK (blue). Light orange, light blue: up- or down-regulation, respectively, by either 841 or 102 shRNA. FIG. 13B: WM858 cells were transfected with FAK or EGFP cDNA. Regulated genes, FAK over EGFP cells, are shown in orange (up) or blue (down) (n=4). FIG. 13C: Flow cytometry of NC, 841 and 102 cells (un-induced vs. 0.05 mM IPTG for 5 days). FIG. 13D: Integrin cell surface mean intensities; mean.+−.s.d.; n=3; *, p<0.05; p values, Student's t-test; ns, not significant. FIG. 13E: Visualization of focal adhesions by paxillin staining on micropatterned fibronectin disks. […] FIGS. 13M-13O: FAK/ERK levels in NHM and WM858 after overnight drug incubation (FIG. 13M); quantification of FAK (FIG. 13N) and ERK phosphorylation (FIG. 13O); mean.+−.s.d.; n=4; *, p<0.05; p values, Student's t-test. […]
(§1) PYK2, a FAK-like tyrosine kinase, could not be detected in WM858 cells, irrespective of endogenous FAK levels. WM858 cells carrying control (NC) or FAK-specific shRNAs (841 and 102) were then exposed to IPTG for 5 days, and changes in adhesion gene expression were subsequently quantified by PCR. […]

β1 integrin = test: Cell surface β1 integrin expression by flow cytometry after overnight drug incubation; format: cell-based; conditions: 5 μM
Experimental: (§2) FIGS. 13A-13P illustrate B-raf^V600E inhibits FAK to promote integrin surface expression. FIG. 13A: shRNAs 841, 102 and NC were induced in WM858 cells by IPTG for 5 days (n=4) followed by RNA quantitation. Genes regulated at 0 vs. 0.05 mM IPTG in 841 and 102 but not NC cells are shown. These were: ITGB3 (orange), FAK (blue). Light orange, light blue: up- or down-regulation, respectively, by either 841 or 102 shRNA. FIG. 13B: WM858 cells were transfected with FAK or EGFP cDNA. Regulated genes, FAK over EGFP cells, are shown in orange (up) or blue (down) (n=4). FIG. 13C: Flow cytometry of NC, 841 and 102 cells (un-induced vs. 0.05 mM IPTG for 5 days). FIG. 13D: Integrin cell surface mean intensities; mean.+−.s.d.; n=3; *, p<0.05; p values, Student's t-test; ns, not significant. FIG. 13E: Visualization of focal adhesions by paxillin staining on micropatterned fibronectin disks. FIGS. 13F and 13G: Proliferation speed in the absence (FIG. 13F) or presence (FIG. 13G) of FAK shRNAs; mean.+−.s.d.; n=8; *, p<0.05; p values, Student's t-test; ns, not significant. FIGS. 13H and 13I: Scratch wound healing in IPTG-induced cells; representative experiment (n=3). FIGS. 13J and 13K: Effect of IPTG-induced FAK knock-down on total (t) and phospho (p)-ERK; mean.+−.s.d.; n=4; *, p<0.05; p values, Student's t-test. FIG. 13L: Cell surface β1 and β3 integrin expression (flow cytometry) in B-raf^V600E and wild-type cells after overnight drug incubation; % expression relative to DMSO is shown. FIGS. 13M-13O: FAK/ERK levels in NHM and WM858 after overnight drug incubation (FIG. 13M); quantification of FAK (FIG. 13N) and ERK phosphorylation (FIG. 13O); mean.+−.s.d.; n=4; *, p<0.05; p values, Student's t-test. FIG. 13P: ERK activity in NC, 841 and 102 cells (0.05 mM IPTG for 5 days) after overnight drug incubation.
(§3) Isopropyl β-D-1-thiogalactopyranoside (IPTG), 4′,6-Diamidino-2-phenylindole dihydrochloridemitomycin (DAPI), blebbistatin and PF-573228 were purchased from Sigma-Aldrich. Dabrafenib (GSK2118436) was purchased from Selleckchem. FAK antibody (06-543) was from EMD MILLIPORE®. FAK pY397 (44624G) antibody was from Life Technologies. Total ERK (9102) and phospho-ERK (4370) antibodies were from Cell Signaling. Paxillin (610051), ITGB3 (555754), ITGB1 (555443) and mouse IgG1 kappa (555749) antibodies were from BD Transduction Labs. Drugs were used at 5 μM final concentration. EGFP control cDNA was from (Lonza). FAK cDNA was obtained from A. Huttenlocher, Addgene plasmid number 35039 (Chan et al., J. Biol. Chem., 285:11418-26 (2010)).
PYK2, a FAK-like tyrosine kinase, could not be detected in WM858 cells, irrespective of endogenous FAK levels. WM858 cells carrying control (NC) or FAK-specific shRNAs (841 and 102) were then exposed to IPTG for 5 days, and changes in adhesion gene expression were subsequently quantified by PCR. […] Moreover, Dabrafenib-induced blockage of ERK activity could be partially reversed by a complete FAK knock-down in 102 cells (FIG. 13P).

β3 integrin = test: Cell surface β3 integrin expression by flow cytometry after overnight drug incubation; format: cell-based; conditions: B-rafV600E melanoma cells, 5 μM
Experimental: as §2
as §3, with “FAK cDNA was obtained from A. Huttenlocher, Addgene plasmid number 35039 (Chan et al., J. Biol. Chem., 285:11418-26 (2010)).” left out
as §1

β3 integrin (ITGB3) = test: Expression of β3 integrin (ITGB3) in melanoma cells; format: cell-based; conditions: FIG. 15E
From the text: (§4) FIGS. 15A-15J illustrate that pentamidine inhibits SPP1 expression, proliferation, and invasion of melanoma cells. […] FIGS. 15B-15D illustrate that pentamidine inhibits SPP1 promoter activity in the DUAL-GLO® assay (FIG. 15B), but also by quantitative PCR in normal WM858 (FIG. 15C) and M12 cells (FIG. 15D). […] FIG. 15I is a chart illustrating that pentamidine injections reduce SPP1, ([…], and t-PA (PLAT) mRNA expression in M12 PDX. Average of three mice is shown. PENTA, Pentamidine; DABRA, Dabrafenib. WM858 and M12 are B-rafV600E metastatic melanoma cells.
(§5) Pentamidine inhibited SPP1 mRNA in both WM858 (FIG. 15C) and M12 cells (FIG. 15D). […] Next, a red-fluorescent nuclear protein was stably expressed in M12 cells to automatically count nuclei over time (using the IncuCyte ZOOM system, Essen Bioscience), a surrogate measure of cell proliferation. Pentamidine reduced M12 proliferation with an ED50 of 40 μM.

t-PA (PLAT) mRNA = t-PA (PLAT) mRNA in M12 xenograft tumor tissue by quantitative PCR; format: in vivo, mice; conditions: all doses i.m. for six days
From the text: as §4
(§6) To determine whether Pentamidine reduces SPP1 expression in vivo, M12 cells were injected intradermally into female nude mice and left to grow until xenograft tumors formed (FIGS. 15H and 15I). Then, four different doses of Pentamidine were injected intramuscularly (i.m.) into groups of three mice for six consecutive days. It was previously shown that serum concentration in patients injected with 4 mg/kg Pentamidine i.m. daily (FDA labeling) range from 0.2-1.4 μg/mL (0.3-2.4 μM). In rats, slightly lower levels can be achieved using 10 mg/kg i.m. daily (0.1-0.4 μg/mL) (Bernard et al., J. Inf. Dis. 152:750-754 (1985) and Waalkes et al., Clin. Pharma. Therap. 11:505-512 (1969)). […] Tumors were subsequently harvested, lysed, and analyzed by quantitative PCR. […]

M12 cells [1] = test: M12 proliferation, automated count of red-fluorescent nuclei (IncuCyte ZOOM); format: cell-based; conditions: Homo sapiens, nuclei counted over time, read-out: M12 proliferation ED50
Experimental: Automated quantification of cell proliferation was by the INCUCYTE™ kinetic imaging system (Essen Bioscience). Approximately 2,000 cells were seeded into a 96-well cell culture dish, eight replicates per condition over the indicated time. Data analysis was with the INCUCYTE ZOOM software package.
as §5

SPP1 mRNA [2] = test: SPP1 mRNA by quantitative PCR in M12 cells; format: cell-based, human
From the text: as §4, §5

β3 integrin mRNA = β3 integrin mRNA in M12 xenograft tumor tissue by quantitative PCR; format: in vivo, mice; conditions: all doses i.m. for six days
From the text: as §4, §6

SPP1 mRNA [3] = test: SPP1 mRNA by quantitative PCR in WM858 cells; format: cell-based
From the text: as §4, §5

[4] = rats, 10 mg/kg i.m. daily; cited from earlier work
in vitro [5] = format: cell-based; conditions: human
Experimental: as §5

t-PA (PLAT) = test: Expression of t-PA (PLAT) in melanoma cells; format: cell-based; conditions: FIG. 15E
From the text: as §4, §5

SPP1 promoter = SPP1 promoter dual luciferase (DUAL-GLO) screen of LOPAC library in WM858 cells; format: cell-based; conditions: WM858 cells with luciferase-tagged SPP1 promoter
From the text: FIG. 14 depict the luciferase construct for high-throughput screening. Genomic structure of the SPP1 gene is shown as well as a targeting approach. A DNA double-strand break was induced in exon (E) 2 of SPP1, 3′ of the ATG start codon by a custom-made zinc finger nuclease (ZFN), arrow. A targeting vector with 500 bp homology arms (HA, middle), Hygromycin resistance (HYGRO), a target promoter-driven firefly luciferase (LUC2P), and a CMV-pomoter driven renilla luciferase (HRLUC) was offered for repair at the time of the double-strand break. PA, PA terminator signal. Blue boxes, untranslated region; black boxes, translated region.
Osteopontin (SPP1) is a proto-typical cancer-associated extracellular matrix gene and ligand of αv and α5β1 integrins. SPP1 is highly overexpressed in melanoma (Talantov et al., Clin. Cancer Res. 11:7234-42 (2005)) and its upregulation correlates with metastasis risk (Conway et al., Clin. Cancer Res. 15:6939-6946 (2009) and Mitra et al., Br. J. Cancer 103:1229-1236 (2010)). To rapidly screen chemical compounds for their ability to inhibit SPP1 expression in vitro, the endogenous SPP1 promoter of WM858 melanoma cells was tagged with a dual luciferase system using zinc finger nucleases. The SPP1-promoter drives firefly luciferase tagged with a protein degradation sequence (hPEST). A CMV-promoter driven renilla luciferase was used as a loading control (FIG. 14). […]

[6] = patients, 4 mg/kg i.m. daily (FDA labeling); cited from earlier work
[7] = Tolerability of i.m. Pentamidine in nude mice with intradermal M12 xenografts; format: in vivo; conditions: six consecutive days, female nude mice
Experimental: To determine whether Pentamidine reduces SPP1 expression in vivo, M12 cells were injected intradermally into female nude mice and left to grow until xenograft tumors formed (FIGS. 15H and 15I). Then, four different doses of Pentamidine were injected intramuscularly (i.m.) into groups of three mice for six consecutive days. It was previously shown that serum concentration in patients injected with 4 mg/kg Pentamidine i.m. daily (FDA labeling) range from 0.2-1.4 μg/mL (0.3-2.4 μM). In rats, slightly lower levels can be achieved using 10 mg/kg i.m. daily (0.1-0.4 μg/mL) (Bernard et al., J. Inf. Dis. 152:750-754 (1985) and Waalkes et al., Clin. Pharma. Therap. 11:505-512 (1969)). In the current study, at the highest Pentamidine dose (80 mg/kg/daily), all mice died. Mice survived at 40 mg/kg/day, but appeared sick. […] Tumors were subsequently harvested, lysed, and analyzed by quantitative PCR. All doses of Pentamidine led to a reduction of SPP1, β3 integrin, and t-PA (PLAT) mRNA expression in tumor tissue (FIG. 15J).

M12 cells [8] = test: M12 invasion into Matrigel-embedded scratch wounds; format: cell-based, human; conditions: 2 mg/mL Matrigel, compared with Dabrafenib
From the text: as §4, §5

in vitro [9] = format: cell-based; conditions: human; remark: listed apart in the source
Experimental: as §5

SPP1 mRNA [10] = test: SPP1 mRNA in M12 xenograft tumor tissue by quantitative PCR; format: in vivo, mice; conditions: all doses i.m. for six days
From the text: as §4, §6

## CS(=O)(=O)c1cccc(CNc2nc(Nc3ccc4c(c3)CCC(=O)N4)ncc2C(F)(F)F)c1 [PF-573228]
ERK
  ERK activity: induce
β1 integrin; B-raf wild-type melanoma cells
  β1 integrin surface levels: not
β1 integrin; B-rafV600E melanoma cells
  β1 integrin surface levels: induced
β3 integrin
  β3 integrin surface levels: induced

## N=C(N)c1ccc(OCCCCCOc2ccc(C(=N)N)cc2)cc1 [Pentamidine, 4,4′-[pentane-1,5-diylbis(oxy)]dibenzenecarboximidamide]
β3 integrin (ITGB3)
  expression of β integrin: reduced
t-PA (PLAT) mRNA
  t-PA (PLAT) mRNA expression in tumor tissue: reduction
M12 cells [1]
  EC50: 40 µM
SPP1 mRNA [2]
  SPP1 mRNA: inhibited
β3 integrin mRNA
  β3 integrin mRNA expression in tumor tissue: reduction
SPP1 mRNA [3]
  SPP1 mRNA: inhibited
[4]
  serum concentration: 100 to 400 ng/mL
In vitro [5]
  EC50: > 100 µM
t-PA (PLAT)
  expression of t-PA (PLAT): reduced
SPP1 promoter
  Normalized ratio: firefly signal normalized to renilla signal, then to DMSO-treated control wells: < 0.25
[6]
  serum concentration: 0.2-1.4 μg/mL and 0.3-2.4 μM
[7]; 40 mg/kg/day i.m.
  survival / tolerability of mice: appeared sick
[7]; 80 mg/kg/daily i.m.
  survival / tolerability of mice: all mice died
[7]; other two doses, specifically 8 mg/kg/day i.m.
  survival / tolerability of mice: well tolerated
M12 cells [8]
  Matrigel invasion: more effectively than Dabrafenib
In vitro [9]
  EC50: > 100 µM
SPP1 mRNA [10]
  SPP1 mRNA expression in tumor tissue: reduction
